Laboratory results as given in patent publication US20240158348A1, “HERBICIDAL CYCLIC AMIDES N-SUBSTITUTED WITH A HALOALKYLSULFONYLANILIDE GROUP” (FMC Corporation, priority 2021, published 2024).

Key:
Format in all cases: in vivo
[1] = test system: barnyardgrass (Echinochloa crusgalli); assay: Test D flooded paddy test, barnyardgrass; set-up: key: 0 = no effect, 100 = complete control; conditions: 250 g ai/ha, Flood; applied to paddy water at 2-leaf stage; visual rating after 13 days; scale 0 (no effect) to 100 (complete control)
In short: (§1)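 2-leaf plants; flood 3 cm over soil; cpd into paddy water; depth maintained; greenhouse 13 d; visual rating vs controls, 0 = no effect, 100 = complete control; dash = no result.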

[2] = test system: goosegrass (Eleusine indica); assay: Test C postemergence, goosegrass; conditions: for Goosegrass plant response rating: visual injury, 0 to 100 scale (0 no effect, 100 complete control)
In short: (§2)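 Plants grown in a sand and loam soil blend received the formulated test chemicals either as a preemergence soil-directed spray or postemergence at 2 to 10 cm height. After 10 or 12 greenhouse days, injury was assessed visually, with 100 meaning complete control.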

[3] = test system: oat, wild (wild oat, Avena fatua); assay: Test C postemergence, wild oat; conditions: for Oat, Wild plant response rating: visual injury, 0 to 100 scale (0 no effect, 100 complete control)
kochia (Bassia scoparia) = assay: Test C preemergence, kochia; conditions: 0 is no effect, 100 is complete control
In short: as §2

[4] = test system: ryegrass, Italian (Italian ryegrass, Lolium multiflorum); assay: Test C preemergence, Italian ryegrass; conditions: 0 is no effect, 100 is complete control
In short: as §2

[5] = test system: wheat (Triticum aestivum); assay: Test C preemergence, wheat; conditions: 0 is no effect, 100 is complete control
soybean (Glycine max) = assay: Test C preemergence, soybean; conditions: 0 is no effect, 100 is complete control
In short: as §2

[6] = test system: ducksalad (Heteranthera limosa); assay: Test D flooded paddy test, ducksalad; set-up: key: 0 = no effect, 100 = complete control; conditions: 250 g ai/ha, Flood; applied to paddy water at 2-leaf stage; visual rating after 13 days; scale 0 (no effect) to 100 (complete control)
In short: as §1

[7] = test system: foxtail, giant (giant foxtail, Setaria faberi); assay: Test C preemergence, giant foxtail; conditions: 0 is no effect, 100 is complete control
In short: as §2

[8] = 125 g ai/ha Postemergence, 0 is no effect, 100 is complete control

| SMILES | Plant response rating, Barnyardgrass [1] | Goosegrass plant response rating ([2]; 31 g ai/ha Postemergence) | Plant response rating (0 to 100 scale), Goosegrass [2, 8] | Oat, Wild plant response rating ([3]; 31 g ai/ha Postemergence) | Plant response rating (0 to 100 scale), Oat, Wild [3, 8] | Plant response rating (0 to 100 scale), Kochia (kochia (Bassia scoparia); 31 g ai/ha Preemergence) | Plant response rating (0 to 100 scale), Kochia (kochia (Bassia scoparia); 125 g ai/ha Preemergence) | Plant response rating (0 to 100 scale), Ryegrass, Italian ([4]; 31 g ai/ha Preemergence) | Plant response rating (0 to 100 scale), Ryegrass, Italian ([4]; 125 g ai/ha Preemergence) | Plant response rating (0 to 100 scale), Wheat ([5]; 31 g ai/ha Preemergence) | Plant response rating (0 to 100 scale), Wheat ([5]; 125 g ai/ha Preemergence) | Plant response rating (0 to 100 scale), Soybean (soybean (Glycine max); 31 g ai/ha Preemergence) | Plant response rating (0 to 100 scale), Soybean (soybean (Glycine max); 125 g ai/ha Preemergence) | Plant response rating, Ducksalad [6] | Plant response rating (0 to 100 scale), Foxtail, Giant ([7]; 31 g ai/ha Preemergence) | Plant response rating (0 to 100 scale), Foxtail, Giant ([7]; 125 g ai/ha Preemergence) | Goosegrass plant response rating ([2]; 125 g ai/ha Postemergence) | Oat, Wild plant response rating ([3]; 125 g ai/ha Postemergence) |
| --- | --- | --- | --- | --- | --- | --- | --- | --- | --- | --- | --- | --- | --- | --- | --- | --- | --- | --- |
| COC(=O)N(c1cc(N2CCC(OC3CC3)C2=O)c(C)cc1Cl)S(=O)(=O)C(F)(F)F (centres unmarked) [Compound 40] | 0 | 50 | 90 | 50 | 80 | 90 | 100 | 90 | 100 | 60 | 100 | 70 | 90 | 70 | 100 | 100 |  |  |
| Cc1cc(C)c(N2CCC(OCC3CC3(F)F)C2=O)cc1NS(=O)(=O)C(F)(F)F (centres unmarked) [Compound 41] | 15 | 90 |  | 30 |  | 100 | 100 | 100 | 100 | 90 | 100 | 60 | 100 | 60 | 100 | 100 | 90 | 30 |
| Cc1cc(C)c(N2CCC(OCC3CCCO3)C2=O)cc1NS(=O)(=O)C(F)(F)F (centres unmarked) [Compound 42] | 0 | 40 |  | 0 |  | 20 | 90 | 20 | 90 | 30 | 90 | 0 | 90 | 95 | 20 | 100 | 90 | 40 |
| Cc1cc(C)c(N2CCC(OCC3CCC3)C2=O)cc1NS(=O)(=O)C(F)(F)F (centres unmarked) [Compound 43] | 25 | 20 |  | 10 |  | 60 | 80 | 80 | 100 | 20 | 100 | 10 | 90 | 95 | 30 | 100 | 90 | 20 |
| Cc1c(NS(=O)(=O)C(F)(F)F)cc(N2CCC(OC3CCC3)C2=O)c(C)c1C (centres unmarked) [Compound 45] | 95 | 70 |  | 10 |  | 90 | 100 | 50 | 90 | 60 | 100 | 50 | 100 | 85 | 100 | 100 | 90 | 30 |
| Cc1c(NS(=O)(=O)C(F)(F)F)cc(N2CCC(OC3CC3)C2=O)c(C)c1C (centres unmarked) [Compound 47] | 75 | 50 |  | 10 |  | 70 | 100 | 50 | 90 | 90 | 100 | 50 | 90 | 95 | 100 | 100 | 90 | 60 |
| Cc1c(N2CCC(OC3CC3)C2=O)cc(N(C(=O)OCC(C)C)S(=O)(=O)C(F)(F)F)c(C)c1C (centres unmarked) [Compound 50] | 90 | 20 |  | 20 |  | 20 | 100 | 50 | 100 | 30 | 100 | 30 | 60 | 90 | 50 | 100 | 80 | 50 |
| Cc1c(N2CCC(OC3CCC3)C2=O)cc(N(COC(=O)C(C)(C)C)S(=O)(=O)C(F)(F)F)c(C)c1C (centres unmarked) [Compound 51] | 100 | 0 |  | 0 |  | 30 | 80 | 40 | 100 | 10 | 60 | 0 | 30 | 85 | 10 | 90 | 20 | 30 |
| Cc1cc(C)c(N(COC(=O)C(C)(C)C)S(=O)(=O)C(F)(F)F)cc1N1CCC(OCC2CC2)C1=O (centres unmarked) [Compound 53] | 40 | 60 |  | 10 |  | 0 | 50 | 60 | 100 | 60 | 90 | 20 | 40 | 70 | 10 | 90 | 90 | 50 |
| Cc1cc(C)c(N(COC(=O)C(C)(C)C)S(=O)(=O)C(F)(F)F)cc1N1CCC(OCC2CC2(F)F)C1=O (centres unmarked) [Compound 54] | 45 | 60 |  | 10 |  | 0 | 30 | 0 | 90 | 0 | 80 | 0 | 30 | 90 | 0 | 80 | 90 | 80 |
| Cc1cc(C)c(N(COC(=O)C(C)(C)C)S(=O)(=O)C(F)(F)F)cc1N1CCC(OCC2CCC2)C1=O (centres unmarked) [Compound 56] | 35 | 0 |  | 10 |  | 0 | 70 | 30 | 80 | 0 | 0 | 0 | 30 | 85 | 0 | 80 | 60 | 10 |
